We go through twelve compounds from US12521358B2, “Method for selecting cancer patients for whom combination therapy with retinoid and cancer therapeutic agent is effective, and combination medicament with retinoid and cancer therapeutic agent” (RaQualia Pharma Inc., priority 2020, dated 2026).

In data set [1] the test system is primary human pancreatic stellate cells. In words: Meflin gene (ISLR) expression by qPCR after retinoid treatment (Example 4). In kind it is cell-based. To be noted: relative expression level, control (DMSO-treated cells) = 1, retinoid 1 μM, 48 hours. How it is done: (§1) The primary human pancreatic stellate cells used are those provided by Dr. Masamune, Tohoku University. The primary mouse mesenchymal stem cells used are those purchased from Cyagen Co., Ltd. Both pancreatic stellate cells and mesenchymal stem cells are considered to be the origin of CAF. As the retinoid, the retinoid contained in SCREEN-WELL Nuclear Receptor ligand library (ENZO) is used. DMEM+10% FBS is used as a culture medium. The cells are seeded in a collagen-coated dish and cultured until they are 100% confluent, and various retinoids are added to a concentration of 1 μM. After 48 hours, cells are harvested, RNA is extracted using RNeasyPLUS KIT (QIAGEN), and cDNA is synthesized using ReverseTra Ace qPCR RT Master Mix (TOYOBO). The expression level of the meflin gene (ISLR and Islr) is measured by qPCR using the Gene expression assay (Thermo Fisher scientific).

Data set [2] has as its system primary mouse mesenchymal stem cells. In words: Meflin gene (Islr) expression by qPCR after retinoid treatment (Example 4). Type of data set: cell-based. The following applies: relative expression level, control (DMSO-treated cells) = 1, retinoid 1 μM, 48 hours. How it is done: as §1
(Quantitative PCR measures a nucleic acid by following its amplification.)

Data set [3] shares this test system. In words: Islr, Acta2, Col1a1 and Col3a1 expression by qPCR after retinoid treatment (Example 5). The following applies: vs control (DMSO), 48 hours after addition; for expression level of meflin gene (Islr): FIG. 27(A); for expression level of actin gene (Acta2): FIG. 27(B); for expression level of type I collagen gene (Col1a1): FIG. 27(C); for expression level of type III collagen gene (Col3a1): FIG. 27(D). In kind it is cell-based. How it is done:
as §1
The same method is performed as in the experiment using the primary mouse mesenchymal stem cells in Example 4. ATRA, AM80 and AM580 are used as retinoids. The expression levels of the meflin gene (Islr), actin gene (Acta2), type I collagen gene (Col1a1) and type III collagen gene (Col3a1) are measured by qPCR.

The test system of data set [4] is mouse pancreatic cancer cells mT5. In words: AM80 alone in mice subcutaneously transplanted with mT5 (Example 6). Type of data set: in vivo. The text has this: Pancreatic cancer cell mT5, which was distributed by Dr. David Tuveson, Cold Spring Harbor Laboratory, is used. mT5 is a pancreatic cancer cell established from a pancreatic tumor developed in KPC mice, which is a pancreatic cancer spontaneous onset model (Organoid models of human and mouse ductal pancreatic cancer. Cell. 2015 Jan. 15; 160 (1-2)): 324-38. Doi: 10.1016/j. cell. 2014.12.021. Epub 2014 Dec. 31.).
C57BL/6J female mice are subcutaneously transplanted with mouse pancreatic cancer cells mT5 (1.0×10^6 cells). Eight days later (Day 8), AM80 is orally administered for 15 days to mice in which tumor formation was confirmed. Depending on the dose of AM80 (0.1 mg/kg/day, 0.5 mg/kg/day, 1 mg/kg/day and 3 mg/kg/day), a total of 5 groups, namely, four AM80 administration groups and a control group (DMSO administration) are set up (n=5 in each group). Body weight and tumor volume are measured before the start of the AM80 administration (Day 8), Day 11, Day 15, Day 18 and Day 22. On Day 22, mice are euthanized, tumors are removed to prepare tissue specimens, the in situ hybridization (ISH) is performed to detect the expression of the meflin gene (Islr) and the actin gene (Acta2), and then the number of positive signals is counted for each. Furthermore, a tissue specimen of the tumor is prepared, immunostaining is performed with an anti-CD31 antibody to stain CD31, which is a marker for vascular endothelial cells, and the vascular lumen area is measured.

For data set [5] the test system is unchanged. In words: Collagen arrangement in tumor stroma by second harmonic microscope (Example 16). Type of data set: in vivo. The following applies: tamibarotene 3.0 mg/kg oral once a day for 7 days from Day 8; vs control (DMSO); Day 15. The method, then: C57BL/6J female mice are subcutaneously transplanted with mouse pancreatic cancer cells mT5 (1.0×10^6 cells). Eight days later (Day 8), the mice are divided into two groups, a control group and a tamibarotene administration group (AM80 group) to ensure equal tumor volume (n=5 in each group). In the AM80 group, tamibarotene (3.0 mg/kg) is orally administered once a day for 7 days from Day 8. In the control group, DMSO is orally administered instead of tamibarotene. On Day 15, mice are euthanized, and tumors are removed to prepare tissue specimens. Eight to sixteen images are randomly selected from the tumor tissue specimen, the collagen arrangement is measured with a second harmonic microscope, and the curvature (linearity) is analyzed.

The test system is the same in data set [6]. The data set is described as follows: Tamibarotene and gemcitabine in mice transplanted with mT5 (Example 7). Type of data set: in vivo. To be noted: tamibarotene 3.0 mg/kg oral once a day for 17 days from Day 8; gemcitabine 50 mg/kg i.p. Day 15, 18, 21; to Day 24. How it is done:
C57BL/6J female mice are subcutaneously transplanted with mouse pancreatic cancer cells mT5 (1.0×10^6 cells). […] In the Gem+AM80 group, tamibarotene (3.0 mg/kg) is orally administered once a day for 17 days from Day 8. In addition, in the Gem group and the Gem+AM80 group, gemcitabine (50 mg/kg) is intraperitoneally administered once each on Day 15, Day 18 and Day 21. In the control group, DMSO is orally administered instead of tamibarotene, and saline is intraperitoneally administered instead of gemcitabine. Tumor volume is measured before start of the AM80 administration (Day 8), Day 12, Day 15, Day 18, Day 21 and Day 24.

[7] abbreviates: AM80 3 mg/kg/day vs control group, tumor removed Day 22.

In the case of `CC1=C(/C=C/C(C)=C/C=C/C(C)=C/C(=O)O)C(C)(C)CCC1O` (stereo not shown) [4-Hydroxyretinoic acid, 4-hydroxyretinoic acid], the “ISLR expression level (mean value)” value in data set [1] was found to be 3.264; in data set [2] it was 1.912.
Take `CC1=C(/C=C/C(C)=C\C=C\C(C)=C\C(=O)O)C(C)(C)CCC1` [9-cis Retinoic acid, 9-cis-retinoic acid]: in data set [1], the “ISLR expression level (mean value)” value is listed as 4.894.
Still for that read-out and setting: with `CC1=C(/C=C/C(C)=C/C=C/C(C)=C\C(=O)O)C(C)(C)CCC1` [13-cis Retinoic, 13-cis-retinoic acid] the figure was 7.252.
For the compound `CC1(C)CCC(C)(C)c2cc(NC(=O)c3ccc(C(=O)O)cc3)ccc21` [AM80, tamibarotene], in data set [3], the “expression level of meflin gene (Islr)” value is listed as “high”, the “expression level of actin gene (Acta2)” value was “low”, the “expression level of type I collagen gene (Col1a1)” value (“expression level … (Col1a1)” for short) is recorded as “low” and the “expression level of type III collagen gene (Col3a1)” value (“expression level … (Col3a1)” below) is “low”. In addition, in data set [4] (setting [7]), the “number of dots of the Acta2 positive signal per high-magnification field (ISH)” value is given as “significantly lower”, the “number of dots of the Islr positive signal per high-magnification field (ISH)” value is “significantly higher” and the “vascular lumen area (anti-CD31 immunostaining)” value is on record as “significantly higher”. Moreover, the tumor volume entry in data set [4] (AM80 0.1, 0.5, 1 and 3 mg/kg/day oral for 15 days from Day 8, vs control (DMSO), Day 8-22) was “does not suppress the growth”. In addition, in data set [4] (AM80 0.1-3 mg/kg/day oral for 15 days), the body weight result is listed as “does not affect the body weight”. Also, the “curvature (linearity) of collagen” value in data set [5] is “reducing the linearity of collagen”.
Regarding `CC1(C)CCC(C)(C)c2cc(C(=O)Nc3ccc(C(=O)O)cc3)ccc21` [AM580], in data set [1], the “ISLR expression level (mean value)” value is 3625.326. The “ISLR expression level (mean value)” value in data set [2] was determined as 5.295. Further, in data set [3], the “expression level of meflin gene (Islr)” value is “high”, the “expression level of actin gene (Acta2)” value is on record as “low”, the “expression level … (Col1a1)” value was “low” and the “expression level … (Col3a1)” value is given as “low”.
Take `CC1=C(/C=C/C(C)=C/C=C/C(C)=C/C(=O)O)C(C)(C)CCC1` [ATRA, all-trans retinoic acid]: in data set [1], the “ISLR expression level (mean value)” value is recorded as 217.5011. The “ISLR expression level (mean value)” value in data set [2] was determined as 1.693. Moreover, in data set [3], the “expression level of meflin gene (Islr)” value is recorded as “high”, the “expression level of actin gene (Acta2)” value is on record as “low”, the “expression level … (Col1a1)” value is on record as “low” and the “expression level … (Col3a1)” value is “low”.
Regarding `COc1cc(C)c(/C=C/C(C)=C/C=C/C(C)=C/C(=O)O)c(C)c1C` [Acitretin], the “ISLR expression level (mean value)” value in data set [1] is given as 47.59; in data set [2] it was 7.659.
Turning to `COc1ccc(-c2ccc3cc(C(=O)O)ccc3c2)cc1C12CC3CC(CC(C3)C1)C2` [Adapalene, adapalene], the “ISLR expression level (mean value)” value in data set [2] is 5.428.
For the compound `CC(C)(c1ccc(OCC2CO2)cc1)c1ccc(OCC2CO2)cc1` (stereo not shown) [BADGE, bisphenol A diglycidyl ether], in data set [1], the “ISLR expression level (mean value)” value was determined as 5089.576.
On to `Nc1ccn([C@@H]2O[C@H](CO)[C@@H](O)C2(F)F)c(=O)n1` [Gem, gemcitabine], for which the “tumor growth (tumor volume)” value in data set [6] is “more significantly suppresses the tumor growth than the control group”.
`CC(=O)OC/C=C(C)/C=C/C=C(C)/C=C/C1=C(C)CCCC1(C)C` [Retinyl acetate, retinyl acetate]: the “ISLR expression level (mean value)” value in data set [1] is 3.29.
On to `C/C(=C\c1ccc(C(=O)O)cc1)c1ccc2c(c1)C(C)(C)CCC2(C)C` [TTNPB], for which the figures for the “ISLR expression level (mean value)” value in data set [1] and in data set [2] were 15.94 and 5.183, respectively.
